Experiments:
Rattus norvegicus [1] = assay: Antihypertensive activity in spontaneously hypertensive Rattus norvegicus (rat) assessed as reduced systolic blood pressure at 1 mg/kg intragastrically administered; assay type: functional, Artery; conditions: route intragastric
Rattus norvegicus [2] = assay: Antihypertensive activity in spontaneously hypertensive Rattus norvegicus (rat) assessed as reduction in systolic blood pressure compound intragastrically administered measured at 1 to 20 hr post compound treatment; assay type: functional, organism-based; conditions: Artery
Rattus norvegicus [3] = assay: Antihypertensive activity in spontaneously hypertensive Rattus norvegicus (rat) assessed as reduced systolic blood pressure at 0.5 mg/kg intragastrically administered measured at 1 hr post compound treatment (reference value: 1 +/- 3 mmHg); assay type: functional, Artery; conditions: route intragastric
Rattus norvegicus [4] = assay: Antihypertensive activity in spontaneously hypertensive Rattus norvegicus (rat) assessed as reduced systolic blood pressure at 2 mg/kg intragastrically administered measured at 4 hr post compound treatment (reference value: -1 +/- 3 mmHg); assay type: functional, Artery; conditions: route intragastric
Rattus norvegicus [5] = assay: Antihypertensive activity in spontaneously hypertensive Rattus norvegicus (rat) assessed as reduced systolic blood pressure at 1 mg/kg intragastrically administered measured at 2 hr post compound treatment (reference value: -1 +/- 2 mmHg); assay type: functional, Artery; conditions: route intragastric
Rattus norvegicus [6] = assay: Antihypertensive activity in spontaneously hypertensive Rattus norvegicus (rat) assessed as reduced systolic blood pressure at 2 mg/kg intragastrically administered measured at 6 hr post compound treatment (reference value: -2 +/- 3 mmHg); assay type: functional, Artery; conditions: route intragastric
Rattus norvegicus [7] = assay: Antihypertensive activity in spontaneously hypertensive Rattus norvegicus (rat) assessed as reduced systolic blood pressure at 1 mg/kg intragastrically administered measured at 4 hr post compound treatment (reference value: -1 +/- 3 mmHg); assay type: functional, Artery; conditions: route intragastric
Rattus norvegicus [8] = assay: Antihypertensive activity in spontaneously hypertensive Rattus norvegicus (rat) assessed as reduced systolic blood pressure at 2 mg/kg intragastrically administered measured at 8 hr post compound treatment (reference value: -3 +/- 3 mmHg); assay type: functional, Artery; conditions: route intragastric
Rattus norvegicus [9] = assay: Antihypertensive activity in spontaneously hypertensive Rattus norvegicus (rat) assessed as reduced systolic blood pressure at 1 mg/kg intragastrically administered measured at 1 hr post compound treatment (reference value: 1 +/- 3 mmHg); assay type: functional, Artery; conditions: route intragastric
Rattus norvegicus [10] = assay: Antihypertensive activity in spontaneously hypertensive Rattus norvegicus (rat) assessed as reduced systolic blood pressure at 2 mg/kg intragastrically administered measured at 2 hr post compound treatment (reference value: -1 +/- 2 mmHg); assay type: functional, Artery; conditions: route intragastric
Rattus norvegicus [11] = assay: Antihypertensive activity in spontaneously hypertensive Rattus norvegicus (rat) assessed as reduced systolic blood pressure at 2 mg/kg intragastrically administered measured at 20 hr post compound treatment (reference value: -2 +/- 4 mmHg); assay type: functional, Artery; conditions: route intragastric
Rattus norvegicus [12] = assay: Antihypertensive activity in spontaneously hypertensive Rattus norvegicus (rat) assessed as reduced systolic blood pressure at 1 mg/kg intragastrically administered measured at 6 hr post compound treatment (reference value: -2 +/- 3 mmHg); assay type: functional, Artery; conditions: route intragastric
Rattus norvegicus [13] = assay: Antihypertensive activity in spontaneously hypertensive Rattus norvegicus (rat) assessed as reduced systolic blood pressure at 2 mg/kg intragastrically administered measured at 1 hr post compound treatment (reference value: 1 +/- 3 mmHg); assay type: functional, Artery; conditions: route intragastric

CCOC(=O)C1=C(C)NC(C)=C(C(=O)OCC)C1c1ccccc1/C=C/C(=O)OC(C)(C)C [LACIDIPINE]
Activity (Rattus norvegicus [1]): 50 mmHg

CCOC(=O)C1=C(C)NC(C)=C(C(=O)OCC)C1c1ccccc1/C=C/C(=O)N1CCCCC1
Activity (Rattus norvegicus [1]): 22 mmHg

CCCCN(C)C(=O)/C=C/c1ccccc1C1C(C(=O)OCC)=C(C)NC(C)=C1C(=O)OCC
Activity (Rattus norvegicus [1]): 27 mmHg

CCOC(=O)C1=C(C)NC(C)=C(C(=O)OCC)C1c1ccccc1/C=C/C(=O)N(CC)CC
Activity (Rattus norvegicus [1]): 33 mmHg

CCOC(=O)C1=C(C)NC(C)=C(C(=O)OCC)C1c1ccccc1/C=C/C(=O)N(C)C(C)(C)C
Activity (Rattus norvegicus [2]): Dose-dependent effect | Activity (Rattus norvegicus [3]): 11 mmHg | Activity (Rattus norvegicus [4]): 47 mmHg | Activity (Rattus norvegicus [5]): 34 mmHg | Activity (Rattus norvegicus [6]): 45 mmHg | Activity (Rattus norvegicus [7]): 20 mmHg | Activity (Rattus norvegicus [8]): 43 mmHg | Activity (Rattus norvegicus [9]): 46 mmHg | Activity (Rattus norvegicus [10]): 53 mmHg | Activity (Rattus norvegicus [11]): 25 mmHg | Activity (Rattus norvegicus [12]): 3 mmHg | Activity (Rattus norvegicus [13]): 44 mmHg | Activity (Rattus norvegicus [1]): 46 mmHg

CCOC(=O)C1=C(C)NC(C)=C(C(=O)OCC)C1c1ccccc1/C=C/C(=O)NC(C)(C)C
Activity (Rattus norvegicus [1]): 44 mmHg

CCOC(=O)C1=C(C)NC(C)=C(C(=O)OCC)C1c1ccccc1/C=C/C(=O)NCC(C)C
Activity (Rattus norvegicus [1]): 15 mmHg
